Experimental findings from patent publication US20050106242A1, “Melt blend dispersions” (priority 2003, published 2005) are described below.

≈ marks a conversion by molar mass, not a printed value.

The nature of series [1]: Water solubility of progesterone in artificial intestinal fluid. Particulars: fassgf or other biorelevant; at 37° C. in artificial intestinal fluid (AIF). The series is classed as physicochemical.
Series [2] in a line: Particle size of progesterone precipitation in AIF (Horiba LA-910 laser scattering). The series is classed as physicochemical. Particulars: ~4 mg progesterone in 15 ml AIF, shaken at 37° C.; FIG. 1 and FIG. 2. The procedure: Samples as indicated below containing ˜4 mg of progesterone were added to 15 ml AIF and then were shaken in a water bath at 37° C. The particle size of the progesterone precipitation was measured with Horiba LA-910 laser scattering particle size analyzer.

For `CC(=O)[C@H]1CC[C@H]2[C@@H]3CCC4=CC(=O)CC[C@]4(C)[C@H]3CC[C@]12C` [Progesterone, pregn-4-ene-3,20-dione], in series [1], the solubility was found to be 12 µg/mL (≈ 38.2 µM). The compound further came in with a mean particle size in series [2] of 72.4 μm.

As a reminder, the solubility is the dissolved amount per volume that the medium holds.
